Among the data in PMC6689975, “Novel Cell Wall Antifungals Reveal a Special Synergistic Activity in pbr1 Mutants Resistant to the Glucan Synthesis Antifungals Papulacandins and Echinocandins” (Frontiers in Microbiology, 2019) are MIC values, retold here.

What all share (test): microbe, parasite or virus in culture
One test deals with C. albicans wild-type. On the set-up: species or system whole yeast cells; micro-culture broth dilution MIC in YES at 30 C, turbidity, complete growth inhibition. The conditions noted are these: Candida albicans; YES medium, C. albicans strain f.
Test [1] has as its system Candida albicans C. a.^h (Table 4). On the set-up: species or system yeast; tube dilution MIC in YEPD (± 1.2 M sorbitol), complete growth inhibition by turbidity. The conditions noted are these: 48 h, YEPD + 1.2 M sorbitol. On the procedure:
(§1) Standard YEPD (Yeast Extract, Peptone, Dextrose) ([Sherman, 1990]), YEPD+S (YEPD with 1.2M sorbitol), YES (Yeast Extract, Dextrose and Supplements of Adenine, Histidine, Leucine, Uracil and Lysine) ([Alfa et al., 1993]) and YES+S (YES with 1.2 M sorbitol) ([Ribas et al., 1991]; [Ishiguro et al., 1997]), media were used for determination of MIC values of the tested compounds. A stock solution of 10 mg/ml of each tested compounds was prepared in DMSO and serial dilutions in DMSO were prepared. The final concentration of DMSO was 2% in the YEPD medium. […] The serial dilutions of compounds were dispensed into test tubes with 1 ml of YEPD or YEPD+S to make final concentrations of 200, 100, 50, 25, 12.5, 6.26, 3.125, 1.6, 0.8 and 0.4 μg/ml. The tested yeast strains were previously grown in YEPD, YEPD+S, YES or YES+S agar plates at 30°C for 48 h. For inoculation of YEPD or YEPD+S macro test tubes a suspension of tested fungus was produced with 10^5 cfu/ml (cfu - colony forming unit). 10 μl of suspension was used for inoculation of each tube. After 48 h incubation at 30°C the tubes were checked. The MIC value is the lowest concentration of the tested compound that could inhibit the fungal growth and the medium remained clear. From each tube 10 μl culture was plated on YEPD agar medium to check the contamination. The MIC tests were carried out in three parallels. Micro-culture assays of large numbers of samples were analyzed as described) ([Martins et al., 2011]). Essentially early log-phase cells were grown in YEPD, YEPD+S, YES or YES+S (1.2 M sorbitol) medium at 30°C, and diluted to cell density of 4 X 10^6 cells/ml in YEPD, YEPD+S, YES or YES+S medium and aliquots of 100 μl were dispensed into each small test tube (3 ml test tube size). Then, another 100 μl of YEPD, YEPD+S, YES or YES+S with the corresponding dilution of each compound at 2X concentration (4% DMSO) was added. The final volume was 200 μl, with the cells diluted to of 2 X 10^6 cells/ml and each compound diluted to 1X final concentration, containing increasing concentrations of antifungal (0, 1, 2, 5, 10, 20, 50, 100 and 200 μg/ml) or an equivalent volume of solvent (2% DMSO). The cells were grown at 30°C in an orbital roller and turbidity was analyzed after 24 and 48 h of incubation. The MIC was determined as the minimal concentration of tested compound that produced complete cell growth inhibition and kept the medium clear. The MIC values were calculated from at least three independent experiments.

Test [2] has as its system T1, Saccharomyces cerevisiae S. c.^d (wild-type CVX12-3A).
T1 construct: CVX12-3A
On the set-up: species or system yeast; tube dilution MIC in YEPD (± 1.2 M sorbitol), complete growth inhibition by turbidity. The conditions noted are these: 48 h, YEPD + 1.2 M sorbitol. The method, then: as §1

The subject of test [3] is Candida albicans C. a.^f (Table 4). On the set-up: species or system yeast; tube dilution MIC in YEPD (± 1.2 M sorbitol), complete growth inhibition by turbidity. To be noted: 48 h, YEPD + 1.2 M sorbitol. The method, then:
as §1

For test [4], the system named is T2, Schizosaccharomyces pombe S. p.^a (wild-type 972 h-).
T2 construct: 972 h-
On the set-up: species or system yeast; tube dilution MIC in YEPD (± 1.2 M sorbitol), complete growth inhibition by turbidity. To be noted: 48 h, YEPD + 1.2 M sorbitol. On the procedure: as §1

The subject of test [5] is Candida albicans C. a.^g (Table 4). On the set-up: species or system yeast; tube dilution MIC in YEPD (± 1.2 M sorbitol), complete growth inhibition by turbidity. To be noted: 48 h, YEPD + 1.2 M sorbitol. The method, then:
as §1

Where only a bound is given, the exact number is not on record here.

For `O=c1oc2ccc3ccccc3c2cc1-c1ccccc1CO` [compound 12], the MIC was above 200 µg/mL against C. albicans wild-type; 100 µg/mL in test [1]; 50 µg/mL in test [2]; 100 µg/mL in test [3]; 50 µg/mL in test [4]; 200 µg/mL in test [5].
`O=c1oc2ccccc2cc1-c1ccccc1CO` [compound 15]: the MIC against C. albicans wild-type is above 200 µg/mL; in test [1] it was above 200 µg/mL; in test [2], 100 µg/mL; in test [3] it was 25 µg/mL; in test [4], 200 µg/mL; in test [5] it was above 200 µg/mL.
